Entries after “also recorded” stand apart in the source; their conditions may differ.
What was measured:
[1] = system: V86P/H87Q/I91V/M96I HIV-1; assay: V86P/H87Q/I91V/M96I HIV-1 CA variant vector challenge; type: cell-based
Description: Most HIV-1 plasmids and vectors have been described previously (Berthoux et al., 2004). pNL4-3 contains a complete infectious HIV-1 provirus. pNL4-3-R5 bears the V3 loop of the CCR5-tropic 92TH014-2 HIV-1 strain (Papkalla et al., 2002). To generate pNL4-3-GFP-IRES-Nef, enhanced green fluorescent protein (eGFP) and the ECMV (encephalomyocarditis virus) IRES (internal ribosome entry site) were inserted upstream of nef pNLΔenvGFP is pNL4-3 with an env-inactivating mutation and eGFP in place of nef. CSGW is an HIV-1 vector expressing eGFP under the control of the spleen focus forming virus (SFFV) promoter. pFUPI, was engineered from pFUW (Lois et al., 2002) and uses the ubiquitin promoter to drive expression of a puromycin resistance cassette followed by ECMV IRES-T5. pAIG uses the SFFV promoter to drive expression of T5 followed by IRES-eGFP. In pscALPS, the SFFV promoter drives expression of T5 and the human CypA promoter drives expression of eGFP. For three-component vector production, HIV-1 gag and pol were expressed using either psPAX2, p8.9NΔSB, p8.9NΔSB-G89V, or p8.9NΔSB-V86P/H87Q/I91V/M96I. p8.9NΔSB-V86P/H87Q/I91V/M96I is p8.9NΔSB with the V86P/H87Q/I91V/M96I mutation (Chatterji et al., 2005) introduced in CA. […] For biochemistry, hT5Cyps were cloned into the p3xFLAG-CMV-7.1 expression vector (Sigma) and HIV-1 CA was expressed as a GST-fusion using the EF1α promoter.

HIV-1NL4-3-IRES-GFP-Nef = assay: Single-cycle cell-to-cell spreading assay, 293T donors and Jurkat targets; type: cell-based; conditions: protein expressed in 293T donor cells, 2 hours co-culture
Description: The mechanism underlying these observations has not yet been determined. […] This would implicate T5-mediated restriction both at post-entry and at a much later step in the viral life cycle (Sakuma et al., 2007; Zhang et al., 2008a). […] To assess the effects of donor and target cell T5Cyp on cell-to-cell spread of HIV-1, a single-cycle cell-to-cell spreading assay for HIV-1 infection was designed. 293T donor cell lines expressing control or indicated T5Cyp were transfected with HIV-1NL4-3-IRES-GFP-Nef provirus and supernatant was harvest during the first 48 hours to measure production of virus by RT activity. […] At the indicated time points dextran sulfate was added to the co-culture to block further infection and cells were harvested. 48 hours later the percentage of infected target Jurkat T cells was measured by flow cytometry (FIG. 53A). The magnitude of HIV-1 restriction in single cycle assays using cell-free virus is shown for recipient Jurkat T cell lines and donor 293 T cell lines is shown (FIG. 53B).

SIVAGMtan = SIVAGMtan GFP vector challenge of CRFK cells expressing T5 proteins; type: cell-based; conditions: in words
Description: (§1) Most HIV-1 plasmids and vectors have been described previously (Berthoux et al., 2004). pNL4-3 contains a complete infectious HIV-1 provirus. pNL4-3-R5 bears the V3 loop of the CCR5-tropic 92TH014-2 HIV-1 strain (Papkalla et al., 2002). To generate pNL4-3-GFP-IRES-Nef, enhanced green fluorescent protein (eGFP) and the ECMV (encephalomyocarditis virus) IRES (internal ribosome entry site) were inserted upstream of nef pNLΔenvGFP is pNL4-3 with an env-inactivating mutation and eGFP in place of nef. […] For biochemistry, hT5Cyps were cloned into the p3xFLAG-CMV-7.1 expression vector (Sigma) and HIV-1 CA was expressed as a GST-fusion using the EF1α promoter.
(§2) 2×10^4 adherent cells/well or 8×10^4 suspension cells/well were plated in 48-well plates (Nunc) for challenge with single-cycle GFP reporter vectors that were titered as indicated. GFP synthesis was assessed by flow cytometry 48 hrs post-infection. […] For infection of 10^6 primary CD4^+ T cells or macrophages, 15 ng p24/10^6 cells of a CXCR4- or CCR5-tropic HIV-1NL4-3 stock was used, and infection was monitored by assessing the accumulation of RT activity in the supernatant (Sayah et al., 2004). FACSCalibur, Cellquest Pro (Becton Dickinson), and FlowJo software (Treestar, Inc.) were used to record and analyze fluorescence. […]

HIV-1NL4-3-GFP-IRES-Nef [2] = assay: Spreading infection after electroporation of proviral DNA into Jurkat T cell lines; type: cell-based
Description: Studies were designed to see whether a similar system could be exploited in order to select for a T5Cyp-resistant virus. One approach was to introduce HIV-1NL4-3-GFP-IRES-Nef proviral DNA into Jurkat T cell lines expressing T5 or control by electroporation, to ensure that spreading infection was initiated by cell associated virus in the absence of free virus. […] Again no T5Cyp-resistant HIV-1 could be derived in this experimental setting.

HIV-2ROD = HIV-2ROD GFP vector challenge of CRFK cells expressing T5 proteins; type: cell-based; conditions: in words
Description: as §1, §2

HIV-1 = system: HIV-1
Experimental: CRFK, feline kidney fibroblast cells, lack endogenous T5 and are commonly used in the field as they have large T5-restriction phenotypes in single-cycle assays.
(§3) 2×10^4 adherent cells/well or 8×10^4 suspension cells/well were plated in 48-well plates (Nunc) for challenge with single-cycle GFP reporter vectors that were titered as indicated. GFP synthesis was assessed by flow cytometry 48 hrs post-infection. For spreading infection, 10^6 Jurkat cells were infected with 1 to 15 ng p24/10^6 cells of HIV-1NL4-3-GFP-IRES-Nef. Cells were split every 3 days, fixed in 0.5% paraformaldehyde/PBS, and assayed for GFP synthesis by flow cytometry. For infection of 10^6 primary CD4^+ T cells or macrophages, 15 ng p24/10^6 cells of a CXCR4- or CCR5-tropic HIV-1NL4-3 stock was used, and infection was monitored by assessing the accumulation of RT activity in the supernatant (Sayah et al., 2004). FACSCalibur, Cellquest Pro (Becton Dickinson), and FlowJo software (Treestar, Inc.) were used to record and analyze fluorescence. 1-5×10^5 events were acquired for analysis.
as §3, with “cytometry.” for “cytometry. For infection of”, “or macrophages were infected with” for “or macrophages,”, “of CXCR4” for “of a CXCR4-”, “HIV-1NL4-3 stocks, or with low passage, primary isolates HIV-1DH12” for “HIV-1NL4-3 stock was used,”, “and HIV-1132W, (Olivier Schwartz, Pasteur Institute, Paris). Infection” for “and infection”, “supernatant (7).” for “supernatant (Sayah et al., 2004).”

FIVPET = FIVPET GFP vector challenge of CRFK cells expressing T5 proteins; type: cell-based; conditions: in words
Description: as §1, §2

HIV-1NL4-3-GFP-IRES-Nef [3] = assay: Spreading infection of Jurkat T cells with replication-competent HIV-1; type: cell-based; conditions: for HIV-1 replication in spreading infection: in words, Jurkat, up to two months; for isolation of resistant HIV-1: wide range of inocula
Experimental: Jurkat T cells stably transduced with T5-expression vectors were infected with replication-competent HIV-1NL4-3-GFP-IRES-Nef.
as §3
as §3, with “cytometry.” for “cytometry. For infection of”, “or macrophages were infected with” for “or macrophages,”, “of CXCR4” for “of a CXCR4-”, “HIV-1NL4-3 stocks, or with low passage, primary isolates HIV-1DH12” for “HIV-1NL4-3 stock was used,”, “and HIV-1132W, (Olivier Schwartz, Pasteur Institute, Paris). Infection” for “and infection”, “supernatant (7).” for “supernatant (Sayah et al., 2004).”

SIVMAC251 = SIVMAC251 GFP vector challenge of CRFK cells expressing T5 proteins; type: cell-based; conditions: in words
Description: as §1, §2

Substance | block of V86P/H87Q/I91V/M96I HIV-1 [1] | infection of control target cells lower than with empty vector donors (HIV-1NL4-3-IRES-GFP-Nef) [fold] | restriction of SIVAGMtan (SIVAGMtan) | course of infection after electroporation of provirus (HIV-1NL4-3-GFP-IRES-Nef [2]) | restriction of HIV-2ROD (HIV-2ROD) | block of HIV-1 infection relative to hT5Cyp (HIV-1; CRFK cells, low multiplicities of infection) | HIV-1 restriction activity (HIV-1; in words, CRFK cells) | inhibition of HIV-1 (HIV-1; single-cycle infection of CRFK cells) [fold] | restriction of FIVPET (FIVPET) | HIV-1 replication in spreading infection (HIV-1NL4-3-GFP-IRES-Nef [3]) | isolation of resistant HIV-1 (HIV-1NL4-3-GFP-IRES-Nef [3]) | restriction of SIVMAC251 (SIVMAC251) | potency relative to hT5αR323-332 and hT5αR332P (HIV-1; CRFK cells) [fold] | restriction of HIV-1 relative to rhT5α (HIV-1; CRFK cells) [fold]
AoT5Cyp: Aotus (owl monkey) TRIM5-cyclophilin A fusion protein [reference compound] | blocked infection by viruses bearing this sequence as efficiently as they block standard HIV-1 clones | 3 | restricted all four lentiviruses | the infection was self-limiting | blocked comparably | about 10 fold | restricted all four lentiviruses | ~1000 | blocked comparably | No HIV-1 replication was detected; also recorded: HIV-1 replication was not detected | could not be isolated | neither AoT5Cyp nor hT5Cyp can restrict this virus | – | –
hT5Cyp: human TRIM5α fused at serine 322 to human cyclophilin A, SEQ ID NO:12 | blocked infection by viruses bearing this sequence as efficiently as they block standard HIV-1 clones | 10 | significantly better than AoT5Cyp at low MOI | the infection was self-limiting | blocked comparably | – | – | – | blocked comparably | No HIV-1 replication was detected; also recorded: significantly greater anti-HIV-1 activity than a chimeric human/rhesus monkey TRIM5α; also recorded: HIV-1 replication was not detected; also recorded: superior anti-HIV-1 activity | could not be isolated | neither AoT5Cyp nor hT5Cyp can restrict this virus | ~10 | ~10
